Source: paper PMC12693182, “Synthesis and QSAR Studies of Claramine Derivatives, a New Class of Broad-Spectrum Antimicrobial Agents” (Molecules, 2025)
Converted amounts (≈) assume the structure as drawn.

What was measured:
S. aureus 340 = experiment: MIC, broth microdilution; format: cell-based, Staphylococcus aureus; details: for MIC: Staphylococcus aureus, 340, 24 h; for MIC S. aureus 340: 24 h
Description: (§1) Antimicrobial activity of the compounds was studied by determination of minimal inhibitory concentrations (MIC) according to the NCCLS guidelines M7-A2 using the microbroth dilution methods. The bacteria strains were grown on trypticase soy agar (Becton Dickinson) at 37 °C for 24 h. Inocula were prepared in TCE (tryptone 0.1%, […], wt/vol) by ajusting the turbidity at 623 nm to obtain 1–3 10^5 CFU/mL.
(§2) Antimicrobial activities of the compounds were determined by using a broth microdilution method performed in sterile 96-well microplates. All compounds were solubilized in water at a concentration of 10 mM and were transferred to each microplate well in order to obtain a two-fold serial dilution in 100 µL of broth and 100 µL of inoculum containing 2–6 10^5 CFU of each bacterium were added to each well. Some wells were reserved for positive controls and inoculum viability.

P. aeruginosa 1051575 = experiment: MIC, broth microdilution; format: cell-based, Pseudomonas aeruginosa; details: for MIC: Pseudomonas aeruginosa, 1051575, 24 h; for MIC / MIC P. aeruginosa 1051575: 24 h
Description: as §1, §2

[1] = system: Chinese hamster Ovary cells (CHO-K1); experiment: Cytotoxicity assay (WST-1 / Neutral Red); format: cell-based; details: 24-h incubation; for IC50: Cricetulus griseus, 24 h
Description: The cytotoxic activities of compounds were assessed on Chinese hamster Ovary cells (CHO-K1) provided from ATCC-LGC Standards Sarl (Molsheim, France). Cells were maintained in Mc Coy’s 5A (CHO) medium supplemented with 10% bovine calf serum, 2 mM glutamine, and 100 U mL^−1/10 µg mL^−1 penicillin/streptomycin mixtures. For the cytotoxicity experiments, they were seeded in 96-well plates and incubated at 37 °C in humidified atmosphere containing 5% CO2 overnight, then concentrations of compounds were incorporated in triplicate cultures. After a 24-h incubation period at 37 °C, cells were submitted to three successive washes in phosphate buffer saline (PBS) and cell viability was evaluated by two different vital dyes: • i. A first set of cell cultures was incubated in PBS containing 10% WST-1 for 30 min at 37 °C, 5% CO2. Cell viability was evaluated by the assessment of WST-1 absorbance at 450 nm in a microplate spectrophotometer. • ii. A second set of cell cultures was placed into Neutral Red medium (50 μg mL^−1 Neutral Red in complete medium) and incubated for 3 h at 37 °C, 5% CO2. Then the Neutral Red medium was removed and the distaining solution (50% ethanol, 1% acetic acid, 49% distilled water; 50 µL per well) was added into the wells. The plates were shaken for 15–20 min at room temperature in the dark. Cell viability was evaluated by the assessment of absorbance at 540 nm in a microplate spectrophotometer.
Results were expressed as percentages of cell viability about the control (culture medium-only), which corresponded to 100% cell viability. Dose-response curves were calculated by non-linear regression analysis with TableCurve 2D software (V 5.0.1) (Systat Software Inc., San Jose, CA, USA). The Inhibitory Concentration 50% (IC50) was defined as the concentration of compounds that induced a 50% decrease of viable cells.

S. aureus ATCC 25923 = experiment: MIC, broth microdilution; format: cell-based, Staphylococcus aureus; details: ATCC strain; for MIC: Staphylococcus aureus, ATCC25923, 24 h
Description: as §1, §2

S. intermedius 1051997 = experiment: MIC, broth microdilution; format: cell-based, Staphylococcus intermedius; details: for Therapeutic Ratio (TR): IC50 (CHO)/MIC, S. intermedius; for MIC: Staphylococcus intermedius, 1051997, 24 h
Description: as §1, §2

E. faecalis ATCC29212 = experiment: MIC, broth microdilution; format: cell-based, Enterococccus faecalis; details: ATCC strain; for MIC: Enterococcus faecalis, ATCC29212, 24 h, read-out: MIC E. faecalis 29212
Description: as §1, §2

E. coli 1956 = experiment: MIC, broth microdilution; format: cell-based, Escherichia coli; details: for MIC E. coli 1956: 24 h; for MIC: Escherichia coli, 1956, 24 h
Description: as §1, §2

E. coli ATCC 25922 = experiment: MIC, broth microdilution; format: cell-based, Escherichia coli; details: ATCC strain; for MIC E. coli 25922: 24 h; for MIC: Escherichia coli, ATCC25922, 24 h
Description: as §1, §2

P. aeruginosa ATCC 27853 = experiment: MIC, broth microdilution; format: cell-based, Pseudomonas aeruginosa; details: ATCC strain; for MIC P. aeruginosa 27853: 24 h; for MIC: Pseudomonas aeruginosa, ATCC27853, 24 h
Description: as §1, §2

COC(=O)CCC(C)C1CCC2C3C(O)CC4CC(NCCCNCCCN)CCC4(C)C3CC(O)C12C (stereo not shown) [Claramine B02]
MIC (S. aureus 340): 7 µg/mL (≈ 13.1 µM)
MIC (P. aeruginosa 1051575): 13 µg/mL (≈ 24.3 µM)
IC50 [1]: 27 µg/mL (≈ 50.4 µM)

CC(C)OC(=O)CCC(C)C1CCC2C3CCC4CC(NCCCNCCCN)CCC4(C)C3CCC12C (stereo not shown) [Claramine E04]
MIC (S. aureus 340): 3 µg/mL (≈ 5.64 µM)
MIC (P. aeruginosa 1051575): 3 µg/mL (≈ 5.64 µM)
IC50 [1]: 13 µg/mL (≈ 24.4 µM)

COC(=O)CCC(C)C1CCC2C3C(O)CC4CC(NCCCNCCCNCCCN)CCC4(C)C3CCC12C (stereo not shown) [Claramine D02]
MIC S. aureus 340 (S. aureus 340): 4 µg/mL (≈ 6.93 µM)
MIC S. aureus 25923 (S. aureus ATCC 25923; 24 h): 7 µg/mL (≈ 12.1 µM)
MIC S. intermedius 1051997 (S. intermedius 1051997; 24 h): 1 µg/mL (≈ 1.73 µM)
MIC E. faecalis 29212 (E. faecalis ATCC29212; 24 h): 30 µg/mL (≈ 52 µM)
MIC E. coli 1956 (E. coli 1956): 60 µg/mL (≈ 104 µM)
MIC E. coli 25922 (E. coli ATCC 25922): 4 µg/mL (≈ 6.93 µM)
MIC P. aeruginosa 1051575 (P. aeruginosa 1051575): 7 µg/mL (≈ 12.1 µM)
MIC P. aeruginosa 27853 (P. aeruginosa ATCC 27853): 30 µg/mL (≈ 52 µM)
IC50 CHO [1]: 20 µg/mL (≈ 34.7 µM)

COC(=O)CCC(C)C1CCC2C3C(O)CC4CC(NCCCNCCCN)CCC4(C)C3CCC12C (stereo not shown) [Claramine C04]
MIC (S. aureus 340): 7 µg/mL (≈ 13.5 µM)
MIC (P. aeruginosa 1051575): 26 µg/mL (≈ 50 µM)
IC50 [1]: 68 µg/mL (≈ 131 µM)

CC(C)OC(=O)CCC(C)C1CCC2C3C(O)CC4CC(NCCCNCCCN)CCC4(C)C3CCC12C (stereo not shown) [Claramine C19]
MIC S. aureus 340 (S. aureus 340): 2 µg/mL (≈ 3.65 µM)
MIC (S. aureus ATCC 25923): 7 µg/mL (≈ 12.8 µM)
Therapeutic Ratio (TR) (S. intermedius 1051997): 65–114
MIC (S. intermedius 1051997; 24 h): 2 µg/mL (≈ 3.65 µM)
MIC (E. faecalis ATCC29212): 4 µg/mL (≈ 7.3 µM)
MIC (E. coli 1956): 14 µg/mL (≈ 25.6 µM)
MIC (E. coli ATCC 25922): 14 µg/mL (≈ 25.6 µM)
MIC P. aeruginosa 1051575 (P. aeruginosa 1051575): 14 µg/mL (≈ 25.6 µM)
MIC (P. aeruginosa ATCC 27853): 28 µg/mL (≈ 51.1 µM)

CC(C)OC(=O)CCC(C)C1CCC2C3C(O)CC4CC(NCCN(CCN)CCN)CCC4(C)C3CCC12C (stereo not shown) [Claramine C25]
MIC (S. aureus 340): 14 µg/mL (≈ 24.9 µM)
MIC (P. aeruginosa 1051575): 28 µg/mL (≈ 49.7 µM)
IC50 [1]: 141 µg/mL (≈ 250 µM)

CC(C)OC(=O)CCC(C)C1CCC2C3CCC4CC(NCCCN5CCN(CCCN)CC5)CCC4(C)C3CC(O)C12C (stereo not shown) [Claramine A26]
MIC (S. aureus 340): 62 µg/mL (≈ 100 µM)
MIC (P. aeruginosa 1051575): 62 µg/mL (≈ 100 µM)
IC50 [1]: 160 µg/mL (≈ 259 µM)

CC(C)OC(=O)CCC(C)C1CCC2C3C(O)CC4CC(NCCCNCCCCNCCCN)CCC4(C)C3CC(O)C12C (stereo not shown) [Claramine B12]
MIC (S. aureus 340): 8 µg/mL (≈ 12.6 µM)
MIC (S. aureus ATCC 25923): 8 µg/mL (≈ 12.6 µM)
MIC (S. intermedius 1051997; 24 h): 4 µg/mL (≈ 6.3 µM)
MIC (E. faecalis ATCC29212): 32 µg/mL (≈ 50.4 µM)
MIC (E. coli 1956): 62 µg/mL (≈ 97.6 µM)
MIC (E. coli ATCC 25922): 4 µg/mL (≈ 6.3 µM)
MIC (P. aeruginosa 1051575): 8 µg/mL (≈ 12.6 µM)
MIC (P. aeruginosa ATCC 27853): 16 µg/mL (≈ 25.2 µM)
IC50 [1]: 48 µg/mL (≈ 75.6 µM)

CC(C)OC(=O)CCC(C)C1CCC2C3C(O)CC4CC(NCCCNCCCNCCCN)CCC4(C)C3CCC12C (stereo not shown) [Claramine C17]
MIC (S. aureus 340): 2 µg/mL (≈ 3.31 µM)
MIC (S. aureus ATCC 25923): 4 µg/mL (≈ 6.61 µM)
Therapeutic Ratio (TR) (S. intermedius 1051997): 65–114
MIC (S. intermedius 1051997; 24 h): 0.8 µg/mL (≈ 1.32 µM)
MIC (E. faecalis ATCC29212): 8 µg/mL (≈ 13.2 µM)
MIC (E. coli 1956): 10 µg/mL (≈ 16.5 µM)
MIC (E. coli ATCC 25922): 16 µg/mL (≈ 26.4 µM)
Therapeutic Ratio (TR) (P. aeruginosa 1051575; IC50 (CHO)/MIC, P. aeruginosa): > 10
MIC (P. aeruginosa ATCC 27853): 16 µg/mL (≈ 26.4 µM)
IC50 CHO [1]: 85 µg/mL (≈ 141 µM)
IC50 [1]: > 60 µg/mL

CC(C)OC(=O)CCC(C)C1CCC2C3C(O)CC4CC(NCCN(CCN)CCN)CCC4(C)C3CCC12C (stereo not shown) [Claramine D10]
MIC S. aureus 340 (S. aureus 340): 28 µg/mL (≈ 49.7 µM)
MIC (S. aureus ATCC 25923): 28 µg/mL (≈ 49.7 µM)
MIC (S. intermedius 1051997; 24 h): 7 µg/mL (≈ 12.4 µM)
MIC (E. faecalis ATCC29212): 56 µg/mL (≈ 99.5 µM)
MIC (E. coli 1956): 56 µg/mL (≈ 99.5 µM)
MIC (E. coli ATCC 25922): 110 µg/mL (≈ 195 µM)
MIC P. aeruginosa 1051575 (P. aeruginosa 1051575): 14 µg/mL (≈ 24.9 µM)
MIC (P. aeruginosa ATCC 27853): 110 µg/mL (≈ 195 µM)
IC50 CHO [1]: 80 µg/mL (≈ 142 µM)

CC(CCC(=O)OC(C)(C)C)C1CCC2C3CCC4CC(NCCCNCCCCNCCCN)CCC4(C)C3CC(O)C12C (stereo not shown) [Claramine A22]
MIC (S. aureus 340): < 4 µg/mL
IC50 CHO [1]: 38 µg/mL (≈ 60 µM)
IC50 [1]: > 35 µg/mL

CC(C)OC(=O)CCC(C)C1CCC2C3C(O)CC4CC(NCCCNCCCN)CCC4(C)C3CC(O)C12C (stereo not shown) [Claramine B15]
MIC (S. aureus 340): 14 µg/mL (≈ 24.8 µM)
MIC (P. aeruginosa 1051575): 28 µg/mL (≈ 49.7 µM)
IC50 [1]: 113 µg/mL (≈ 200 µM)

CC(CCC(=O)OCC(F)(F)F)C1CCC2C3CCC4CC(NCCCNCCCCNCCCN)CCC4(C)C3CC(O)C12C (stereo not shown) [Claramine A24]
IC50 [1]: 76 µg/mL (≈ 115 µM)

Colistine [reference compound]
MIC E. coli 1956 (E. coli 1956): 0.5 µg/mL
MIC E. coli 25922 (E. coli ATCC 25922): 0.5 µg/mL
MIC P. aeruginosa 1051575 (P. aeruginosa 1051575): 0.5 µg/mL
MIC P. aeruginosa 27853 (P. aeruginosa ATCC 27853): 0.5 µg/mL
